≈ marks a conversion by molar mass, not a printed value. Calls of active or inactive are those of the source. The rule behind the calls is not given here.
How the values were obtained:
Pseudomonas aeruginosa [1] = test: Inhibition of biofilm formation in Pseudomonas aeruginosa PAO1 at below MIC incubated for 24 hrs by crystal violet staining based analysis; type: functional, organism-based
Pseudomonas aeruginosa [2] = test: Inhibition of biofilm formation in Pseudomonas aeruginosa PAO1 incubated for 24 hrs by crystal violet staining based analysis; type: functional
Pseudomonas aeruginosa [3] = test: Antibiofilm activity against preformed biofilm in Pseudomonas aeruginosa PAO1 assessed as reduction in biofilm viability upto 1024 ug/ml incubated for 24 hrs by BacTiter Glo reagent based luminescence analysis; type: functional, organism-based; details: dose <= 1024.0 µg/ml
Escherichia coli = test: Antibacterial activity against Escherichia coli ATCC 25922 assessed as inhibition of bacterial growth incubated for overnight by broth microdilution method; type: functional
Klebsiella pneumoniae = test: Antibacterial activity against Klebsiella pneumoniae ATCC 700603 assessed as inhibition of bacterial growth incubated overnight by broth microdilution method; type: functional
Pseudomonas aeruginosa [4] = test: Antibacterial activity against Pseudomonas aeruginosa ATCC 27853 assessed as inhibition of bacterial growth incubated overnight by broth microdilution method; type: functional
Staphylococcus aureus = test: Antibacterial activity against Staphylococcus aureus ATCC 29213 assessed as inhibition of bacterial growth incubated overnight by broth microdilution method; type: functional
[5] = Cytotoxicity against human HepG2 cells assessed as reduction in cell viability incubated for 24 hrs by MTT assay; type: toxicity, cell-based
[6] = Selectivity index, IC50 for cytotoxicity against human HepG2 cells to MIC for antibacterial activity against Pseudomonas aeruginosa ATCC 27853 assessed as inhibition of bacterial growth; type: toxicity, cell-based; details: read-out: Selectivity Index
Pseudomonas aeruginosa [7] = test: Antibacterial activity against Pseudomonas aeruginosa PAO1 assessed as inhibition of bacterial growth incubated overnight by broth microdilution method; type: functional
Pseudomonas aeruginosa [8] = test: Bactericidal activity against Pseudomonas aeruginosa PAO1 assessed as reduction in viable bacteria at 4 times of MIC measured after 4 to 8 hrs by time-kill kinetics assay; type: functional, organism-based; details: time 4-8 hrs
Pseudomonas aeruginosa [9] = test: Induction of resistance development in Pseudomonas aeruginosa PAO1 assessed as fold increase in MIC measured after consecutive passages for 21 days by serial passaging assay relative to day 1 MIC; type: functional; details: time 21 day
Pseudomonas aeruginosa [10] = test: Induction of spontaneous resistance development in Pseudomonas aeruginosa PAO1 assessed as frequency of resistance at 2 to 4 times of MIC incubated for 48 hrs by FoR assay; type: functional
Pseudomonas aeruginosa [11] = test: Antibiofilm activity against preformed biofilm in Pseudomonas aeruginosa PAO1 assessed as bacteria killing at 1024 ug/ml incubated for 24 hrs by BacTiter Glo reagent based luminescence analysis; type: functional, organism-based; details: dose 1024.0 µg/ml
Pseudomonas aeruginosa [12] = test: Antibiofilm activity in Pseudomonas aeruginosa PAO1 assessed as eradication of preformed biofilm at 64 to 128 ug/ml incubated for 24 hr by BacTiter Glo reagent based luminescence analysis; type: functional, organism-based; details: dose 64-128 µg/ml

Molecule: O=C(O)c1cn(C2CC2)c2cc(N3CCNCC3)c(F)cc2c1=O [CIPROFLOXACIN]
- inhibition (Pseudomonas aeruginosa [1]): inactive
- MBIC50 (Pseudomonas aeruginosa [2]): 2 µg/mL
- MBIC90 (Pseudomonas aeruginosa [2]): 2 µg/mL
- Activity (Pseudomonas aeruginosa [3]): inactive

Molecule: COLISTIN
- MIC (Escherichia coli): 2 µg/mL
- MIC (Klebsiella pneumoniae): 2 µg/mL
- MIC (Pseudomonas aeruginosa [4]): 2 µg/mL

Molecule: CC(=O)O.CC(=O)O.CC(=O)O.CC(=O)O.CCCN(CCCOc1cc(/C=C/c2ccc(/C=C/c3cc(OCCCN(CCC)C(=N)CC)cc(OCCCN(CCC)C(=N)CC)c3)cc2)cc(OCCCN(CCC)C(=N)CC)c1)C(=N)CC
- MIC (Escherichia coli): 2 µg/mL
- MIC (Staphylococcus aureus): 1 µg/mL
- MIC (Klebsiella pneumoniae): 8 µg/mL
- MIC (Pseudomonas aeruginosa [4]): 16 µg/mL
- IC50 at 24 h [5]: 32 µg/mL
- selectivity ratio [6]: 2

Molecule: NC[C@H]1O[C@H](O[C@H]2[C@H](O)[C@@H](O[C@H]3O[C@H](CO)[C@@H](O)[C@H](N)[C@H]3O)[C@H](N)C[C@@H]2N)[C@H](N)C[C@@H]1O [TOBRAMYCIN]
- MIC (Pseudomonas aeruginosa [7]): 0.5 µg/mL (≈ 1.07 µM)
- Activity (Pseudomonas aeruginosa [8]): inactive
- fold change (FC) (Pseudomonas aeruginosa [9]): 64
- Activity (Pseudomonas aeruginosa [10]): Active
- inhibition (Pseudomonas aeruginosa [1]): inactive
- MBIC50 (Pseudomonas aeruginosa [2]): 0.5 µg/mL
- MBIC90 (Pseudomonas aeruginosa [2]): 0.5 µg/mL
- Activity (Pseudomonas aeruginosa [11]): Active

Molecule: CC(=O)O.CC(=O)O.CC(=O)O.CC(=O)O.CCC(=N)N(CCCOc1cc(/C=C/c2ccc(/C=C/c3cc(OCCCN(C(=N)CC)C4CC4)cc(OCCCN(C(=N)CC)C4CC4)c3)cc2)cc(OCCCN(C(=N)CC)C2CC2)c1)C1CC1
- MIC (Escherichia coli): 2 µg/mL
- MIC (Staphylococcus aureus): 1 µg/mL
- MIC (Klebsiella pneumoniae): 8 µg/mL
- MIC (Pseudomonas aeruginosa [4]): 16 µg/mL
- IC50 at 24 h [5]: 128 µg/mL
- selectivity ratio [6]: 8

Molecule: CC(=O)O.CC(=O)O.CC(=O)O.CC(=O)O.CCC(=N)NCCCOc1cc(/C=C/c2ccc(/C=C/c3cc(OCCCNC(=N)CC)cc(OCCCNC(=N)CC)c3)cc2)cc(OCCCNC(=N)CC)c1
- MIC (Escherichia coli): 1 µg/mL
- MIC (Staphylococcus aureus): 1 µg/mL
- MIC (Klebsiella pneumoniae): 8 µg/mL
- MIC (Pseudomonas aeruginosa [4]): 8 µg/mL
- IC50 at 24 h [5]: 1020 µg/mL
- selectivity ratio [6]: 128

Molecule: CC(=O)O.CC(=O)O.CC(=O)O.CC(=O)O.CCC(=N)N(C)CCCOc1cc(/C=C/c2ccc(/C=C/c3cc(OCCCN(C)C(=N)CC)cc(OCCCN(C)C(=N)CC)c3)cc2)cc(OCCCN(C)C(=N)CC)c1
- MIC (Escherichia coli): 1 µg/mL
- MIC (Staphylococcus aureus): 1 µg/mL
- MIC (Klebsiella pneumoniae): 16 µg/mL
- MIC (Pseudomonas aeruginosa [4]): 8 µg/mL
- IC50 at 24 h [5]: > 1020 µg/mL
- selectivity ratio [6]: > 128

Molecule: POLYMYXIN B
- MIC (Pseudomonas aeruginosa [7]): 2 µg/mL
- inhibition (Pseudomonas aeruginosa [1]): inactive
- MBIC50 (Pseudomonas aeruginosa [2]): 2 µg/mL
- MBIC90 (Pseudomonas aeruginosa [2]): 2 µg/mL
- Activity (Pseudomonas aeruginosa [12]): 100%

Source: ChEMBL document CHEMBL5370609, “Amidine-Based Cationic Conjugated Oligoelectrolytes with Antimicrobial Activity against Pseudomonas aeruginosa Biofilms” (J Med Chem, 2023)
